Results reported in US9453031B2, “Chemical entities” (Fundación Centro Nacional de Investigaciones Oncológicas …, priority 2013, dated 2016).

Experiments:
ATR [1] = molecular target: T1, ATR (Homo sapiens (Human), UniProt Q13535); assay: Cellular ATR inhibition, pChk1 Ser345 after UV mimetic 4NQO; type: cell-based; details: HT-29, read-out: UV mimetic inhibition of CHK1P at 10 μM (%); 10 μM compound, 3 μM 4NQO, HT29 cells
Source text: (§1) ATM and ATR have distinct and overlapping responses to DNA damage. They must participate together and responses must be coordinated. Both pathways may be activated by ionizing radiation, and UV. As UV treatment is not practical for use in a high throughput cell assay, the UV mimetic 4NQO (Sigma) was chosen to activate the ATR and ATM DNA damage response pathway.
(§2) Chk1, a downstream protein kinase of ATR, has a key role in DNA damage checkpoint control, as well as Chk2 downstream of ATM. […] This assay measures a decrease in phosphorylation of Chk1 (Ser 345) and […] in HT29 colon adenocarcinoma cells following treatment with compound and the UV mimetic 4NQO. Compounds at 1 mM were created by diluting in 100% DMSO and then diluted 1:100 into assay media (RPMI, 10% FCS, 1% glutamine). Cells were plated in 6 well Costar plates at 5×10^5 cells per mL in 2 mL RPMI, 10% FCS, 1% glutamine and grown for 24 hrs. Following addition of compound the cells were incubated for 60 minutes. A final concentration of 3 μM 4NQO (prepared in 100% DMSO) was then added and the cells incubated for a further 60 mins. The cells are lysed and pChk1 Ser345 and pCHK2 Thr68 (Cell Signaling Technology, #2661) versus total CHK1 and CHK2 (Santa Cruz Biotechnology, se-5278) respectively has analysed by western blot as described above. The percentage of phosphorylated CHK1 versus total CHK1 or p-CHK2 versus total CHK2 in cells treated with 4NQO was taken as hundred percent of phosphorylation. The percentage of CHK1 or CHK2 phosphorylation is finally plotted against concentration for each compound and EC50s for intracellular ATR inhibition are calculated using ActivityBase from IDBS.

ATM = ATM (Homo sapiens (Human), UniProt Q13315); assay: Cellular ATM inhibition, pCHK2 Thr68 after UV mimetic 4NQO; type: cell-based; details: HT-29, read-out: UV mimetic inhibition of CHK2P at 10 μM (%); 10 μM compound, 3 μM 4NQO, HT29 cells
Source text: as §1, §2

ATR [2] = molecular target: T1, ATR; assay: Cellular ATR inhibition, western blot of CHK1(S345) phosphorylation in hydroxyurea treated cells; type: cell-based; details: HT29 cells
Experimental: In addition to the selective system described above, Example compounds presented here were screened for their ability to inhibit intracellular ATR using a western blot assay to detect phosphorylation of the ATR substrate CHK1(S345) in hydroxyurea treated cells. HT29 cells are plated at 500,000 cells per well in 6-well plates in RPMI media (Sigma R6504) supplemented with 10% foetal bovine serum (Sigma F7524), Penicillin/Streptomycin solution diluted 1:100 (Gibco 15070-063), and fungizone (Gibco, 15290-018), and allowed to adhere overnight at 37° C. in 5% CO2. Compounds are then added to the cell media from a final concentration of 10 μM in 3-fold serial dilutions and the cells are incubated at 37° C. in 5% CO2. After 15 min, hydroxyurea (Sigma H8627) is added to a final concentration of 2.5 mM. After 30 min of treatment with hydroxyurea, the cells are washed in PBS, lysed adding 50 μl of in protein lysis buffer (50 mM Tris pH 7.5, 150 mM NaCl, 1% IGEPAL CO-630 (Sigma, Ref. 542334-100G-A), Phospho Stop (Roche, Ref. 04906837001) and Complete Mini EDTA free (Roche, Ref. 11836170001)). The protein content of the lysates was determined by the modified method of Bradford (Sigma, Ref. B6916). The proteins were resolved by SDS-PAGE and transferred to nitrocellulose membrane (VWR International Eurolab, Ref. 732-4007). The membranes were incubated overnight at 4° C. with antibodies specific for total CHK1 (Santa Cruz Biotechnology, sc-8404), phosphoserine-345 CHK1 (Cell Signaling Technology #2348) they were washed and then incubated with IRDye800 conjugated anti-mouse (Pierce/Cultek, 35521) and Alexa Fluor 680 goat anti-rabbit IgG secondary antibodies (Invitrogen, A21076). The bands were visualized and quantified using an Odyssey infrared imaging system (Li-Cor Biosciences). The percentage of phosphorylated CHK1 vs total CHK1 in cells treated with hydroxyurea was taken as hundred percent of phosphorylation. The percentage of CHK1 phosphorylation is finally plotted against concentration for each compound and EC50s for intracellular ATR inhibition are calculated using ActivityBase from IDBS.

CYP 1A2 = CYP 1A2 (Homo sapiens (Human), UniProt P05177); assay: CYP inhibition assay (P450-Glo); type: in vitro ADME; details: recombinant CYP
Eμmyc lymphoma cells = assay: In vivo efficacy, mice injected intravenously with Eμmyc lymphoma cells; details: C57BL/6 mice
Experimental: The efficacy of compounds of the invention alone or in combination with chemotherapeutics agents were measured in vivo by implanting allografts or xenografts of cancer cells in rodents and treating the tumour-bearing animals with the compounds alone or in combination with chemotherapeutics agents.
Recipient mice were monitored for tumor formation by the presence of tumoral cells in the blood (LDH measurement), and twice a week by palpation of the pre-scapular and cervical lymph-nodes, once a week by sonography measurement of thoracic lymph-nodes size. […] Efficacy of the treatment was done evaluating the relative weight of all tumoral tissues (spleen, salivary lymph-nodes, mammary lymph-nodes, thymus and mesenteric lymph-nodes) versus body weight substrating the relative weight of same normal tissues. Bars represent standard error of the mean (n=8).

CYP 3A4 = CYP 3A4 (Homo sapiens (Human), UniProt P08684); assay: CYP inhibition assay (P450-Glo); details: read-out: P450-3A4 IC50; recombinant CYP
CYP 2C9 = CYP 2C9 (Homo sapiens (Human), UniProt P11712); assay: CYP inhibition assay (P450-Glo); details: read-out: P450-2C9 IC50; recombinant CYP
CYP 2C19 = CYP 2C19 (Homo sapiens (Human), UniProt P33261); assay: CYP inhibition assay (P450-Glo); type: in vitro ADME; details: recombinant CYP
CYP 2D6 = CYP 2D6 (Homo sapiens (Human), UniProt P10635); assay: CYP inhibition assay (P450-Glo); type: in vitro ADME; details: recombinant CYP
mTOR = mTOR (Homo sapiens (Human), UniProt P42345); assay: mTOR activity assay (LanthaScreen); type: biochemical
Experimental: The enzymatic mTOR activity was measured using a LanthaScreen™ kinase activity assay (Invitrogen). The enzyme was purchased from Invitrogen (PV4754), as well as the GFP-labelled substrate (4EBP1-GFP; PV4759) and the Tb-antip4EBP1(pThr46) antibody (PV4757). The assay was performed in 50 Mm HEPES buffer, pH 7.5, containing 1.5 mM MnCl2, 10 mM MgCl2, 1 mM EGTA, 2.5 mM DTT and 0.01% Tween-20. The concentration of the assay components were the following: 0.24 nM mTOR kinase, 400 nM 4EBP1-GFP, […] and serial dilutions of the compound (inhibitor) to be evaluated. After 1 h incubation at room temperature, 20 mM EDTA was used to stop the reaction and terbium-labelled antibody (4 nM) added to detect phosphorylated product. The antibody associates with the phosphorylated product resulting in an increased TR-FRET value. The TR-FRET value (a dimensionless number) was calculated as the ratio of the acceptor signal (GFP, emission at 520 nm) to the donor signal (terbium, emission at 495 nm).

PI3K (p110α/p85α) = PI3K (p110α/p85α) (Homo sapiens (Human), UniProt P42336); assay: PI3K alpha activity assay (ADP Hunter Plus); type: biochemical; details: 50 μM ATP, 30 μM PIP2; read-out: PI3Kα IC50
Experimental: The kinase activity was measured by using the commercial ADP Hunter™ Plus assay available from DiscoveRx (#33-016), which is a homogeneous assay to measure the accumulation of ADP, a universal product of kinase activity. […] The reaction was carried out for 1 hour at 25° C. Reagent A and B were sequentially added to the wells and plates were incubated for 30 min at 37° C. Fluorescence counts were read in a Victor instrument (Perkin Elmer) with the recommended settings (544 and 580 nm as excitation and emission wavelengths, respectively).

DNA-PK = DNA-PK (Homo sapiens (Human), UniProt P78527); assay: DNAPK activity assay (ADP Hunter Plus); type: biochemical; details: 75 μM ATP
Experimental: The kinase activity was measured by using the commercial ADP Hunter™ Plus assay available from DiscoveRx (#90-0083), which is a homogeneous assay to measure the accumulation of ADP, a universal product of kinase activity. The enzyme, DNA-PK was purchased from Promega (#V5811). The assay was done following the manufacturer recommendations with slight modifications: Mainly the kinase buffer was replace by 15 mM HEPES, pH 7.5, 10 mM MgCl2, 20 mM NaCl, 1 mM EGTA, 0.1 mg/mL BGG, 0.02% Tween 20. The DNA-PK was assayed in a titration experiment to determine the optimal protein concentration for the inhibition assay. To calculate the […] of the Compounds, serial 1:3 dilutions of the compounds were added to the enzyme at a fixed concentration (2 U/μL). The enzyme was preincubated with the inhibitor and 200 μM DNA substrate and then ATP was added to a final 75 μM concentration. Reaction was carried out for 1 hour at 37° C. Reagent A and B were sequentially added to the wells and plates were incubated for 30 min at RT. Fluorescence counts were read in a EnVision instrument (Perkin Elmer) with the recommended settings (550 and 590 nm as excitation and emission wavelengths, respectively).

PI3K (p110α/p85α), sequence (P42336 whole entry): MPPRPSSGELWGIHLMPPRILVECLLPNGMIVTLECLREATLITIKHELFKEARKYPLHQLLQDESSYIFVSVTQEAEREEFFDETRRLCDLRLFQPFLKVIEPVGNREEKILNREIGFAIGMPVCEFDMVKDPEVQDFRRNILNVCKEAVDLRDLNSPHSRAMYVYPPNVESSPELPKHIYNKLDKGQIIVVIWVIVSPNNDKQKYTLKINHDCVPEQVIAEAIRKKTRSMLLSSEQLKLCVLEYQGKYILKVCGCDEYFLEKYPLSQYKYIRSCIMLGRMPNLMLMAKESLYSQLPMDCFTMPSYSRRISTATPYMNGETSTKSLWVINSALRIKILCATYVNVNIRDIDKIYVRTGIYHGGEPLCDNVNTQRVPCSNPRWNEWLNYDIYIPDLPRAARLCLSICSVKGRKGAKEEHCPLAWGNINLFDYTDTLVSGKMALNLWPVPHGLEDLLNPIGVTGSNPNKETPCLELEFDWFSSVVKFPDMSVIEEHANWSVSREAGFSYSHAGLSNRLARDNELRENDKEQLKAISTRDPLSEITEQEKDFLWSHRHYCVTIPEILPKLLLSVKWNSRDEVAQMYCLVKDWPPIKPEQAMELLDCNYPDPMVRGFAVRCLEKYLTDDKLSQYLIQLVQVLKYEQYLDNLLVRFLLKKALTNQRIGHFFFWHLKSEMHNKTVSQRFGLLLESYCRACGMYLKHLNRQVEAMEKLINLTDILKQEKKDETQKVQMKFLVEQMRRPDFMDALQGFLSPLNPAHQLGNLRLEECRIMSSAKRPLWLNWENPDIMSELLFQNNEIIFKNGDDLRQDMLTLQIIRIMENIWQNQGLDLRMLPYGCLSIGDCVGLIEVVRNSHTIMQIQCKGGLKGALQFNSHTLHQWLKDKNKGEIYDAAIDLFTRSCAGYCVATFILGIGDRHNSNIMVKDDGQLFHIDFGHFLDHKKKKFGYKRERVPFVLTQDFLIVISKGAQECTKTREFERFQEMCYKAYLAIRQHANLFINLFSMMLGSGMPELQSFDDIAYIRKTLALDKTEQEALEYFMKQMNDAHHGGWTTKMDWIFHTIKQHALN
PI3K (p110α/p85α), sequence (P27986 whole entry partner): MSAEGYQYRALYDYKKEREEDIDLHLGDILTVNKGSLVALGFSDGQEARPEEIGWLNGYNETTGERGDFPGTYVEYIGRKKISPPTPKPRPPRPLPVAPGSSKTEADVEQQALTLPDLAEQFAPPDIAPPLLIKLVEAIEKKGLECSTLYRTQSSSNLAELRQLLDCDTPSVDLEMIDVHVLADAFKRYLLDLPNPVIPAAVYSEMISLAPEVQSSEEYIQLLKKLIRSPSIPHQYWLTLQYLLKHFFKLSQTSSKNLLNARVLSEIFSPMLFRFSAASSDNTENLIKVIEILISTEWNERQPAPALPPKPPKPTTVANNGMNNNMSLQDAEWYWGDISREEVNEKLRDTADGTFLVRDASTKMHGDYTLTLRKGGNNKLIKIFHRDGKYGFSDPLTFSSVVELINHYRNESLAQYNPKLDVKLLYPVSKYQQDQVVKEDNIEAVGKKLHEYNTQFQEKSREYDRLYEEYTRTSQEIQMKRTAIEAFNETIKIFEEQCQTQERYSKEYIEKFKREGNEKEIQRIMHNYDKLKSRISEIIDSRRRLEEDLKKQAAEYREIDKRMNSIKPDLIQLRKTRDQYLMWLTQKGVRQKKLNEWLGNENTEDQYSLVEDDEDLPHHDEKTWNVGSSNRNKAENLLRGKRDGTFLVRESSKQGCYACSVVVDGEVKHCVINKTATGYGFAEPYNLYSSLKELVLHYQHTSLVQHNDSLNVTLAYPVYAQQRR
T1 sequence (Q13535 whole entry): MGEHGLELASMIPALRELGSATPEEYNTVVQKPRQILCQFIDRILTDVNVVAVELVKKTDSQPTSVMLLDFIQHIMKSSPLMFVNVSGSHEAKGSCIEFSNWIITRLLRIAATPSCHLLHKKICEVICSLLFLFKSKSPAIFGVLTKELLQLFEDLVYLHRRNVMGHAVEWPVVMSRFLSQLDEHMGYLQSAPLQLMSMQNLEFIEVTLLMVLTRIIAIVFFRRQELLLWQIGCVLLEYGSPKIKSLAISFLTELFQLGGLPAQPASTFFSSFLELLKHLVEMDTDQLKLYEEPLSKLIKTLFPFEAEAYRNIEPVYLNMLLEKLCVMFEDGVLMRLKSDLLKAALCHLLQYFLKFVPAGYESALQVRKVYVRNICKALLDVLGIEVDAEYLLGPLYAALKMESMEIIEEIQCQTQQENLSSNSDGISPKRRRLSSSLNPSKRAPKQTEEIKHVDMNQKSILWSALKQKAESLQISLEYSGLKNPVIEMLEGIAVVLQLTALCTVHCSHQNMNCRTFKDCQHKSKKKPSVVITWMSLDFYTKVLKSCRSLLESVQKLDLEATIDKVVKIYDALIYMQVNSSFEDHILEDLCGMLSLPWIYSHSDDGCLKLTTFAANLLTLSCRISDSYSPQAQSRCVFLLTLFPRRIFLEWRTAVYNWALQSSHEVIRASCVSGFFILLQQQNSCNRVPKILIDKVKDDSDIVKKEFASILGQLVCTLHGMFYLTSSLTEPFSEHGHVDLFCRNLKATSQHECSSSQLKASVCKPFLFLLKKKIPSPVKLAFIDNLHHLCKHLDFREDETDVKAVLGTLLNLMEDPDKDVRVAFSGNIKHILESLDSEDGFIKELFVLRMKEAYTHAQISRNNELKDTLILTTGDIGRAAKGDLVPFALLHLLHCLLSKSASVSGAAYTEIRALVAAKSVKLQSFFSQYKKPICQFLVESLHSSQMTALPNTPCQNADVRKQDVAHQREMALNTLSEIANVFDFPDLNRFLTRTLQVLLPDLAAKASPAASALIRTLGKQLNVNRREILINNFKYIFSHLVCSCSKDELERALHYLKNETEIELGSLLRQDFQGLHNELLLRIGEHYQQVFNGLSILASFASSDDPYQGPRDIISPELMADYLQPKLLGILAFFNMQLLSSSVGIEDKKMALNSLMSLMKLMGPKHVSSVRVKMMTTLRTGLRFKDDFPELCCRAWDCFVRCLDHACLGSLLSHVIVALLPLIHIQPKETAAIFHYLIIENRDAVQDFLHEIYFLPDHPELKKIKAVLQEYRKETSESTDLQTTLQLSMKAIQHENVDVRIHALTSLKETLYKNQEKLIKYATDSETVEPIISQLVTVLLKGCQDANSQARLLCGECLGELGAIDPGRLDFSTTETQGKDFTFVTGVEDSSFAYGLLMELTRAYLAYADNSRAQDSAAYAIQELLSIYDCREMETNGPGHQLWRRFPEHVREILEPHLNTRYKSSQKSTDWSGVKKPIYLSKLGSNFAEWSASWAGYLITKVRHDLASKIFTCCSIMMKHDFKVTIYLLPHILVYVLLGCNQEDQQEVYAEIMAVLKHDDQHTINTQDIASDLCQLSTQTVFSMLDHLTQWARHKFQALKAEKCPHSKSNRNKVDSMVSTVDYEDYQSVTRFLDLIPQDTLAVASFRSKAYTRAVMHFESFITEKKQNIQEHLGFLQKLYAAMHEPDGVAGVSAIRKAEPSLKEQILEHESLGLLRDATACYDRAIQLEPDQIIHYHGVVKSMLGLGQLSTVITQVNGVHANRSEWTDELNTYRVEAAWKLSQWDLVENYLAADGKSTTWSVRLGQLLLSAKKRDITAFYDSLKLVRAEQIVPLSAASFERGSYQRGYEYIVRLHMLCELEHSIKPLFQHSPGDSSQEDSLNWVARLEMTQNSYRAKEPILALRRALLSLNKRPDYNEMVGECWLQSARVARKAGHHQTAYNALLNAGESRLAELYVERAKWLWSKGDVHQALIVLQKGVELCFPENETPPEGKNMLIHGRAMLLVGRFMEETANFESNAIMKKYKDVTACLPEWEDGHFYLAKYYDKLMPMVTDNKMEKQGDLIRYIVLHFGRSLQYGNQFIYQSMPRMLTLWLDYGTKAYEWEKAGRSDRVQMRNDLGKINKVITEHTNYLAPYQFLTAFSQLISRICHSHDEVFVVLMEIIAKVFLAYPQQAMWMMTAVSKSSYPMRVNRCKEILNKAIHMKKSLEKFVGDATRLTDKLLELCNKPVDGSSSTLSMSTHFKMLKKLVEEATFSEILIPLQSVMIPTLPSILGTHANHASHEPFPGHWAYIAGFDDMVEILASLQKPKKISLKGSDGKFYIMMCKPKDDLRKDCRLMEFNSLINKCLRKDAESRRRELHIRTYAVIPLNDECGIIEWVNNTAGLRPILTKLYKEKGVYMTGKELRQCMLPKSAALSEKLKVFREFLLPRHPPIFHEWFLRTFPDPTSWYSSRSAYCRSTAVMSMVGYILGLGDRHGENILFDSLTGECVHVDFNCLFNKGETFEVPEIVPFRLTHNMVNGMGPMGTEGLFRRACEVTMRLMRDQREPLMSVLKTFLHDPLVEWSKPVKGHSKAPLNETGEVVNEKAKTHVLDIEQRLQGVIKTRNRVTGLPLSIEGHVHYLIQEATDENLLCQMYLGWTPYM
CYP 2C9, sequence (P11712 whole entry): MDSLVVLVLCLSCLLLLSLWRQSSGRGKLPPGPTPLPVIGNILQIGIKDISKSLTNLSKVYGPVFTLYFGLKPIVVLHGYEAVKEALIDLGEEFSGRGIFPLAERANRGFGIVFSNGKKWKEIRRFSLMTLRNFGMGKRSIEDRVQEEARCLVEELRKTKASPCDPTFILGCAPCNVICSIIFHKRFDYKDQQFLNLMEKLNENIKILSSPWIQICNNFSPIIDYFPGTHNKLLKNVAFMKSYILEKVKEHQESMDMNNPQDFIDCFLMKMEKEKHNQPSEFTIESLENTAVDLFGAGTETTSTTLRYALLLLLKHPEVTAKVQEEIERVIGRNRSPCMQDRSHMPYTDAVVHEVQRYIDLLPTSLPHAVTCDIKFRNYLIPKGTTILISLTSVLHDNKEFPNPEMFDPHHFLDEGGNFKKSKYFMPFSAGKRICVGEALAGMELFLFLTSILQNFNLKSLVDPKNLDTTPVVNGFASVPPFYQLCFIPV

Structure (SMILES)	inhibition at 10 µM (ATR [1]) [%]	inhibition at 10 µM (ATM) [%]	EC50 (ATR [2]; hydroxyurea 2.5 mM) [µM]	IC50 (mTOR) [µM]	IC50 (PI3K (p110α/p85α)) [µM]	IC50 (DNA-PK) [µM]	further results
C[C@@H]1CN(CC(=O)Nc2ccc3c(c2)Cc2cccc(-c4cc(=O)cc(N5CCOCC5)o4)c2S3)C[C@H](C)O1 [ATM inhibitor KU-60019, reference compound]	38	99	–	–	–	–	–
CC(C)(c1nc(-c2cccc3[nH]ccc23)nc2c1OCC1COCCN21)S(C)(=O)=O (stereo not shown) [Example 1]	99	0	< 0.1	–	–	–	–
CS(=O)(=O)C1(c2nc(-c3cccc4[nH]ccc34)nc3c2OCC2COCCN32)CCOCC1 (stereo not shown) [Example 2]	98	0	< 0.1	–	–	–	–
CS(=O)(=O)C1(c2nc(-c3cccc4[nH]ccc34)nc3c2OC[C@@H]2COCCN32)CCOCC1 [Example 3]	98	0	< 0.1	–	–	–	IC50 (CYP 1A2): > 50 µM; tumor growth inhibition (TGI) (Eμmyc lymphoma cells; 25 mg/kg oral once daily, day 23, compared to vehicle): 46%; IC50 (CYP 3A4): > 50 µM; IC50 (CYP 2C9): > 50 µM; IC50 (CYP 2C19): > 50 µM
O=S(=O)(Cc1nc(-c2cccc3[nH]ccc23)nc2c1OCC1COCCN21)C(F)(F)F (stereo not shown) [Example 5]	98	0	0.1 to 1	–	–	–	–
CNc1nc2ccccc2n1-c1nc2c(c(C(C)(C)S(C)(=O)=O)n1)OCC1COCCN21 (stereo not shown) [Example 8]	98	25	< 0.1	–	–	–	–
CS(=O)(=O)C1(c2nc(-c3cccc4[nH]ccc34)nc3c2OC[C@H]2COCCN32)CCOCC1 [Example 10]	95	25	0.1 to 1	–	–	–	–
CNc1nc2ccccc2n1-c1nc2c(c(C(C)(C)S(C)(=O)=O)n1)OC[C@@H]1COCCN21 [Example 11]	–	–	< 0.1	–	–	–	IC50 (CYP 1A2): > 50 µM; tumor growth inhibition (TGI) (Eμmyc lymphoma cells; 25 mg/kg oral once daily, day 33, compared to vehicle): 53%; tumor growth inhibition (TGI) (Eμmyc lymphoma cells; 50 mg/kg oral once daily, day 33, compared to vehicle): 74%; IC50 (CYP 3A4): 39 µM; IC50 (CYP 2D6): > 50 µM; IC50 (CYP 2C9): 34 µM; IC50 (CYP 2C19): > 50 µM
CS(=O)(=O)C1(c2nc(-c3cc(C(F)(F)F)cc4[nH]ccc34)nc3c2OC[C@@H]2COCCN32)CCOCC1 [Example 105]	–	–	0.1 to 1	1.99	28.9	10	–
CS(=O)(=O)C1(c2nc(-c3ccc(F)c4[nH]ccc34)nc3c2OC[C@@H]2COCCN32)CCOCC1 [Example 106]	–	–	> 1	10	50	1.16	–
CS(=O)(=O)C1(c2nc(-c3cc(C(F)(F)F)cc4[nH]ccc34)nc3c2OC[C@@H]2COCCN32)CC1 [Example 108]	–	–	0.1 to 1	0.579	15.4	1.75	–
Cc1cc2c(-c3nc4c(c(C5(S(C)(=O)=O)CC5)n3)OC[C@@H]3COCCN43)cccc2[nH]1 [Example 109]	–	–	0.1 to 1	0.224	5.69	10	–
CS(=O)(=O)C1(c2nc(-c3ccc(F)c4[nH]ccc34)nc3c2OC[C@@H]2COCCN32)CC1 [Example 110]	–	–	> 1	10	50	10	–
CS(=O)(=O)C1(c2nc(-c3cc(C(F)(F)F)cc4[nH]ccc34)nc3c2OC[C@@H]2COCCN32)CCC1 [Example 112]	–	–	0.1 to 1	0.235	19.5	10	–
CNc1nc2ccc(C#N)cc2n1-c1nc2c(c(C(C)(C)S(C)(=O)=O)n1)OC[C@@H]1COCCN21 [Example 114]	–	–	–	10	50	10	EC50 (ATR [2]; hydroxyurea […]): > 1 µM
